Measured values taken from article PMC12566703, “Design, Synthesis, In Vitro and In Silico Biological Evaluation of New Pyridine-2,5-Dicarboxylates Esters Bearing Natural Source Fragments as Anti-Trypanosomatid Agents” (Pharmaceutics, 2025).
Where two headings read alike, the source gives them in different places.

Key:
[1] = tested on: T. cruzi (A1) epimastigotes; test: In vitro trypanocidal activity, Alamar Blue assay, 48 h; format: cell-based, Trypanosoma cruzi; conditions: for Selectivity Index T. cruzi A1: CC50 (J774.2)/IC50; for IC50: 48 h, read-out: T. cruzi IC50 (µM ± SD) A1; for IC50 / Trypanocidal activity class in words, A1 strain: epimastigotes, A1 strain; for Trypanocidal activity class in words, A1 strain: classes by IC50
Protocol: (§1) Both strains were maintained in liver infusion tryptose (LIT) medium supplemented with 10% FBS and 0.1% penicillin-streptomycin. They were preserved by transferring 1 × 10^6 parasites/mL into a new culture medium every week. […] The metabolic activity was determined by the Alamar Blue assay. Briefly, after the incubation period, 20 µL of 2.5 mM resazurin solution was added to each well and incubated for 3 h. Three independent experiments were performed in triplicate. The half-maximum inhibitory concentration (IC50) was determined using probit analysis.

[2] = tested on: T. cruzi (NINOA) epimastigotes; test: as above; format: cell-based, Trypanosoma cruzi; conditions: for Selectivity Index T. cruzi NINOA: CC50 (J774.2)/IC50; for IC50: 48 h, read-out: T. cruzi IC50 (µM ± SD) NINOA; for IC50 / Trypanocidal activity class in words, NINOA strain: epimastigotes, NINOA strain; for Trypanocidal activity class in words, NINOA strain: classes by IC50
Protocol: as §1

[3] = tested on: L. mexicana (MHOM/MX/2017/UABJO17FCQEPS) (FCQEPS) promastigotes; test: In vitro leishmanicidal activity, MTT method, 48 h; format: cell-based, Leishmania mexicana; conditions: for Selectivity Index L. mexicana FCQEPS: CC50 (J774.2)/IC50; for IC50: 48 h, read-out: L. mexicana IC50 (µM ± SD) FCQEPS; for IC50 / Leishmanicidal activity class in words, FCQEPS strain: promastigotes, FCQEPS strain; for Leishmanicidal activity class in words, FCQEPS strain: classes by IC50
Protocol: (§2) To determine the leishmanicidal activity of pyridine-2,5-dicarboxylates, the parasites, in their logarithmic growth phase (5 × 10^5 parasites/mL), were cultured in 96-well microliter plates with the corresponding pyridine-2,5-dicarboxylate compound at different concentrations (0.78–100 µM). Compounds were dissolved in DMSO in a final volume of 200 µL for 48 h at 26 °C. Parasites treated with DMSO (0.2%) were used as a negative control, while treatments with Glucantime and Amphotericin B, at the same concentrations, were used as positive controls. The metabolic activity of the cells was determined using the 3-(4,5-Dimethylthiazol-2-yl)-2,5-diphenyltetrazolium bromide (MTT) method. IC50 was determined using probit analysis. Three independent experiments were performed in triplicate, and the data were analyzed for statistical significance (p < 0.05) using Biostat 5.3.0 software.

[4] = tested on: L. mexicana (MNYC/BZ/62/M379) (M379) promastigotes; test: In vitro leishmanicidal activity, MTT method, 48 h; format: cell-based, Leishmania mexicana; conditions: for Selectivity Index L. mexicana M379: CC50 (J774.2)/IC50; for IC50: 48 h, read-out: L. mexicana IC50 (µM ± SD) M379; for IC50 / Leishmanicidal activity class in words, M379 strain: promastigotes, M379 strain; for Leishmanicidal activity class in words, M379 strain: classes by IC50
Protocol: as §2

[5] = Cytotoxicity assay, MTT method, 48 h; format: cell-based, murine; conditions: mouse, J774.2 macrophage cells, J774.2 cell line, read-out: Macrophage J774.2 CC50 (µM ± SD)
Protocol: A cytotoxicity assay was performed using the murine macrophage J774.2 cell line, which was recloned from the original ascites and solid tumor J774.1 (according to the manufacturer). The cells were cultured in RPMI medium supplemented with 10% SBF, 100 U […] penicillin, 100 µg/mL streptomycin, and glutamine (2 mM), and 5% CO2 atmosphere. The medium was changed every 2–3 days. Macrophages were used at 1 × 10^6 cells and were incubated with compounds at different concentrations (0.75–100 µM, respectively) at 37 °C for 48 h in a 5% CO2 atmosphere. DMSO was used as a negative control (0.2%). The metabolic activity of macrophages was determined by the MTT method. The percentage of cell viability was calculated, and the half-maximal cytotoxic concentration (CC50) was determined using probit analysis. Three independent assays were conducted in triplicate.

SMILES	Selectivity Index T. cruzi A1 [1]	IC50 ([1]; Trypanosoma cruzi)	Selectivity Index T. cruzi NINOA [2]	IC50 ([2]; Trypanosoma cruzi)	Selectivity Index L. mexicana FCQEPS [3]	IC50 ([3]; Leishmania mexicana)	Leishmanicidal activity class in words, FCQEPS strain [3]	Selectivity Index L. mexicana M379 [4]	IC50 ([4]; Leishmania mexicana)	Leishmanicidal activity class in words, M379 strain [4]	CC50 at 48 h [5]	IC50 [2]	IC50 [1]	Trypanocidal activity class in words, NINOA strain [2]	IC50 [3]	IC50 [4]	Trypanocidal activity class in words, A1 strain [1]
CCOC(=O)c1nc(C)c(C(=O)OC/C=C/c2ccccc2)cc1-c1ccccc1 [Compound 7a]	>1	> 200 µM	>7.20	27.8 ± 1.66 µM	>1	> 200 µM	did not have leishmanicidal activity	>1	> 200 µM	did not have antiparasitic activity	> 200 µM						
CCOC(=O)c1nc(C)c(C(=O)OCc2ccc3c(c2)OCO3)cc1-c1ccccc1 [Compound 6a, 5-(Benzo[d][1,3]dioxol-5-ylmethyl) 2-ethyl 6-methyl-3-phenylpyridine-2,5-dicarboxylate]	>1	> 200 µM	>7.3	< 28 µM	>1	> 200 µM	did not have leishmanicidal activity	>1	> 200 µM	did not have antiparasitic activity	> 200 µM	27.2 ± 0.84 µM					
CCOC(=O)c1nc(C)c(C(=O)OCc2ccc(C)cc2)cc1-c1ccc(F)cc1 [Compound 5c]	>9.6	20.8 ± 0.1 µM	>1	> 200 µM	>1	> 200 µM	abolished their leishmanicidal activity	>1	> 200 µM	inactive	> 200 µM						
CCOC(=O)c1nc(C)c(C(=O)O[C@@H]2C[C@H]3CC[C@@]2(C)C3(C)C)cc1-c1ccc(C)cc1 [Compound 9b, 2-Ethyl 5-((1S,2R,4R)-1,7,7-trimethylbicyclo[2.2.1]heptan-2-yl) 6-methyl-3-(p-tolyl)pyridine-2,5-dicarboxylate]	>5.2	< 40 µM		< 40 µM	>2.5			>5.0			> 200 µM	22.3 ± 1.6 µM	38.5 µM				
CCOC(=O)c1cc(-c2ccccc2)c(C(=O)OCC)nc1C [Compound 3a, Diethyl 6-methyl-3-phenylpyridine-2,5-dicarboxylate]	>7.5		>3.6	≤ 56.7 µM	>1	> 200 µM	did not have leishmanicidal activity	>1	> 200 µM	did not have antiparasitic activity	> 200 µM	54.5 ± 2.36 µM		moderate activity			
CCOC(=O)c1nc(C)c(C(=O)OCC23CC4CC(CC(C4)C2)C3)cc1-c1ccccc1 [Compound 10a]	>4.3	46.9 µM	>1.9	105 µM	>1.2	≤ 162 µM		>2.4	≤ 162 µM		> 200 µM	105 ± 1.34 µM			161.53 ± 0.03 µM	82.19 ± 0.01 µM	
CCOC(=O)c1nc(C)c(C(=O)OCc2ccc(C)cc2)cc1-c1ccc(C)cc1 [Compound 5b]	>1	> 200 µM	>1	> 200 µM	>1	> 200 µM		>1	> 200 µM	did not have antiparasitic activity	> 200 µM						completely lose their trypanocidal activity
CCOC(=O)c1nc(C)c(C(=O)OC/C=C(\C)CCC=C(C)C)cc1-c1ccccc1 [Compound 12a]	0.2	117.8 ± 0.94 µM	0.2	106 ± 1.43 µM	0.3	75.3 ± 4.28 µM			> 200 µM	did not have antiparasitic activity	25 ± 0.8 µM			slight trypanocidal activity			slight activity
CCOC(=O)c1nc(C)c(C(=O)OC/C=C(\C)CCC=C(C)C)cc1-c1ccc(C)cc1 [Compound 12b, (E)-5-(3,7-Dimethylocta-2,6-dien-1-yl) 2-ethyl 6-methyl-3-(p-tolyl)pyridine-2,5-dicarboxylate]	>1	> 200 µM	>1	> 200 µM	>3.5			>3.6			> 200 µM						completely lose their trypanocidal activity
CCOC(=O)c1nc(C)c(C(=O)OCc2ccc3c(c2)OCO3)cc1-c1ccc(F)cc1 [Compound 6c]	>7.9	25.4 ± 0.6 µM	>1	> 200 µM	>1	> 200 µM		>1	> 200 µM	inactive	> 200 µM						
CCOC(=O)c1nc(C)c(C(=O)OC2C[C@@H]3CC[C@@]2(C)C3(C)C)cc1-c1ccccc1 (stereo partly shown) [Compound 9a]	>8.0	< 29 µM	>3.6	55.8 ± 2.5 µM	>1	> 200 µM	did not have leishmanicidal activity	>1	> 200 µM	did not have antiparasitic activity	> 200 µM		25 ± 2.98 µM	moderately active (moderately active (IC50 41 to 100 µM))			
CCOC(=O)c1nc(C)c(C(=O)OCc2ccc(C)cc2)cc1-c1ccccc1 [Compound 5a, 2-Ethyl 5-(4-methylbenzyl) 6-methyl-3-phenylpyridine-2,5-dicarboxylate]	>9.3		>3.5	≤ 56.7 µM	>2.1	95 ± 1.36 µM		>1	> 200 µM	did not have antiparasitic activity	> 200 µM	56.6 ± 1.26 µM					
CCOC(=O)c1nc(C)c(C(=O)OC/C=C(\C)CCC=C(C)C)cc1-c1ccc(F)cc1 [Compound 12c]	>4.0	50.1 ± 1 µM	>4.1	49.1 ± 2.5 µM	>1.7	114 ± 7.03 µM		>2.3	85.98 ± 0.02 µM		> 200 µM						
CCOC(=O)c1cc(-c2ccc(F)cc2)c(C(=O)OCC)nc1C [Compound 3c]	>2.2	91.7 ± 1.72 µM	>1.9	100 ± 1.86 µM	>1.7	118 ± 2.08 µM		>1	> 200 µM	inactive	> 200 µM						
